US12552775B2, “Compounds and uses thereof” (Foghorn Therapeutics Inc., priority 2020, dated 2026)

Legend:
HiBit-BRM fusion protein = molecular target: T1, HiBit-BRM fusion protein (Homo sapiens, UniProt P51531); test: HiBiT-BRM cell-based degradation assay (Nano-Glo HiBiT Lytic Detection, 24 h); settings: stable HeLa cell line expressing HiBiT-BRM, top dose 30 μM
T1 construct: expressed in transfected cells
Method in brief: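 Luminescence from HiBiT/LgBiT complementation after lysis reports remaining HiBiT-BRM in stable HeLa cells exposed to compound for 24 h. Dosing used 3-fold serial dilutions, 10 points, 30 μM top final concentration. DMSO and a 2 μM BRM/BRG1 degrader standard defined 0% and 100% degradation.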

[1] = molecular target: T2, HiBit-BRG1 fusion protein (Homo sapiens, UniProt P51532); test: HiBiT-BRG1 cell-based degradation assay (Nano-Glo HiBiT Lytic Detection, 24 h); settings: stable HeLa cell line expressing HiBit-BRG1 and LgBit, top dose 30 μM, read-out: BRG1 HiBit Degradation Maximum (%)
T2 construct: expressed in transfected cells
Method in brief: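 HeLa cells stably expressing HiBiT-BRG1 plus LgBiT were treated with 10-point 3-fold compound dilutions (top 30 μM final) for 24 h. Lytic Nano-Glo HiBiT luminescence was read. % degradation was normalised between DMSO (high control) and 2 μM of a reference BRM/BRG1 degrader (low control).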

T1 sequence (P51531 whole entry, the tested form may be a part): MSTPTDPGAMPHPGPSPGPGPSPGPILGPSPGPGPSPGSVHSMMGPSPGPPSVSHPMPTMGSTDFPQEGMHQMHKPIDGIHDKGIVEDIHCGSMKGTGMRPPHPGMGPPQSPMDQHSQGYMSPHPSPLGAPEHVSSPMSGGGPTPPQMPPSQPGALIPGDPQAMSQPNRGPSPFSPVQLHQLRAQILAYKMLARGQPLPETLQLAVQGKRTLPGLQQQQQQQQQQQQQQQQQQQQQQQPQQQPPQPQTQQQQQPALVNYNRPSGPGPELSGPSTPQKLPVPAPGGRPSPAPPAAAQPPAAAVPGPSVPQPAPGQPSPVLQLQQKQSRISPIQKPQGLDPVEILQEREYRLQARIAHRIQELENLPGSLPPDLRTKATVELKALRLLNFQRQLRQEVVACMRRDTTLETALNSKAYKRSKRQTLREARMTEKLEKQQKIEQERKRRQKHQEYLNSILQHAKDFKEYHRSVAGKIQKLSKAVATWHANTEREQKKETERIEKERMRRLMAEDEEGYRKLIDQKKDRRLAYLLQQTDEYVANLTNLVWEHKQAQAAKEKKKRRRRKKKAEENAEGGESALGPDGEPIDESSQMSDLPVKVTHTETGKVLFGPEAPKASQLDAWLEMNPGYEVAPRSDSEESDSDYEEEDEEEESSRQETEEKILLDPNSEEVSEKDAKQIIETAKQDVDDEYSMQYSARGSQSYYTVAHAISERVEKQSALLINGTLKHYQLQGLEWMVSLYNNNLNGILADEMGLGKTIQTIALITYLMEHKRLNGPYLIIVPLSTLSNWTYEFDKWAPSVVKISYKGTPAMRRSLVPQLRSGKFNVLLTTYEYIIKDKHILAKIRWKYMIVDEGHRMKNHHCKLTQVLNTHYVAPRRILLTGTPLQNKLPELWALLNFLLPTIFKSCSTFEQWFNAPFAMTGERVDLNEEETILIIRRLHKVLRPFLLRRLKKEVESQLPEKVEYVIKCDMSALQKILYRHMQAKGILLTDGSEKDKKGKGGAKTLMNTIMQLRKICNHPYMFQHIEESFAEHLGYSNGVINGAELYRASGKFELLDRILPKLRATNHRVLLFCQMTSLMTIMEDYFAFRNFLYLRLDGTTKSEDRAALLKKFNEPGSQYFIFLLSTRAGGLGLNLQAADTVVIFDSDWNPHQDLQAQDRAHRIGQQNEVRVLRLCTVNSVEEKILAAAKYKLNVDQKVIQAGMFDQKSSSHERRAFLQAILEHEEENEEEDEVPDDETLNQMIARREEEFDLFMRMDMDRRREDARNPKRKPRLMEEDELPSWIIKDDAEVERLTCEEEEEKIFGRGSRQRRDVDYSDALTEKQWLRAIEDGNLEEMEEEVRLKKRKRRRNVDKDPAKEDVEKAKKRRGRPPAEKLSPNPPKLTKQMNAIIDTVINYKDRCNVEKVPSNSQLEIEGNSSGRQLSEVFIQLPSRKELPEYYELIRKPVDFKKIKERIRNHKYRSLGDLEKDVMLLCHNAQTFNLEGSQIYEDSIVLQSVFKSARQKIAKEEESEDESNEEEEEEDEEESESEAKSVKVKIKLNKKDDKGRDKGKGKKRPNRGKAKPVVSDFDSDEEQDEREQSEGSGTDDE
T2 sequence (P51532 whole entry, the tested form may be a part): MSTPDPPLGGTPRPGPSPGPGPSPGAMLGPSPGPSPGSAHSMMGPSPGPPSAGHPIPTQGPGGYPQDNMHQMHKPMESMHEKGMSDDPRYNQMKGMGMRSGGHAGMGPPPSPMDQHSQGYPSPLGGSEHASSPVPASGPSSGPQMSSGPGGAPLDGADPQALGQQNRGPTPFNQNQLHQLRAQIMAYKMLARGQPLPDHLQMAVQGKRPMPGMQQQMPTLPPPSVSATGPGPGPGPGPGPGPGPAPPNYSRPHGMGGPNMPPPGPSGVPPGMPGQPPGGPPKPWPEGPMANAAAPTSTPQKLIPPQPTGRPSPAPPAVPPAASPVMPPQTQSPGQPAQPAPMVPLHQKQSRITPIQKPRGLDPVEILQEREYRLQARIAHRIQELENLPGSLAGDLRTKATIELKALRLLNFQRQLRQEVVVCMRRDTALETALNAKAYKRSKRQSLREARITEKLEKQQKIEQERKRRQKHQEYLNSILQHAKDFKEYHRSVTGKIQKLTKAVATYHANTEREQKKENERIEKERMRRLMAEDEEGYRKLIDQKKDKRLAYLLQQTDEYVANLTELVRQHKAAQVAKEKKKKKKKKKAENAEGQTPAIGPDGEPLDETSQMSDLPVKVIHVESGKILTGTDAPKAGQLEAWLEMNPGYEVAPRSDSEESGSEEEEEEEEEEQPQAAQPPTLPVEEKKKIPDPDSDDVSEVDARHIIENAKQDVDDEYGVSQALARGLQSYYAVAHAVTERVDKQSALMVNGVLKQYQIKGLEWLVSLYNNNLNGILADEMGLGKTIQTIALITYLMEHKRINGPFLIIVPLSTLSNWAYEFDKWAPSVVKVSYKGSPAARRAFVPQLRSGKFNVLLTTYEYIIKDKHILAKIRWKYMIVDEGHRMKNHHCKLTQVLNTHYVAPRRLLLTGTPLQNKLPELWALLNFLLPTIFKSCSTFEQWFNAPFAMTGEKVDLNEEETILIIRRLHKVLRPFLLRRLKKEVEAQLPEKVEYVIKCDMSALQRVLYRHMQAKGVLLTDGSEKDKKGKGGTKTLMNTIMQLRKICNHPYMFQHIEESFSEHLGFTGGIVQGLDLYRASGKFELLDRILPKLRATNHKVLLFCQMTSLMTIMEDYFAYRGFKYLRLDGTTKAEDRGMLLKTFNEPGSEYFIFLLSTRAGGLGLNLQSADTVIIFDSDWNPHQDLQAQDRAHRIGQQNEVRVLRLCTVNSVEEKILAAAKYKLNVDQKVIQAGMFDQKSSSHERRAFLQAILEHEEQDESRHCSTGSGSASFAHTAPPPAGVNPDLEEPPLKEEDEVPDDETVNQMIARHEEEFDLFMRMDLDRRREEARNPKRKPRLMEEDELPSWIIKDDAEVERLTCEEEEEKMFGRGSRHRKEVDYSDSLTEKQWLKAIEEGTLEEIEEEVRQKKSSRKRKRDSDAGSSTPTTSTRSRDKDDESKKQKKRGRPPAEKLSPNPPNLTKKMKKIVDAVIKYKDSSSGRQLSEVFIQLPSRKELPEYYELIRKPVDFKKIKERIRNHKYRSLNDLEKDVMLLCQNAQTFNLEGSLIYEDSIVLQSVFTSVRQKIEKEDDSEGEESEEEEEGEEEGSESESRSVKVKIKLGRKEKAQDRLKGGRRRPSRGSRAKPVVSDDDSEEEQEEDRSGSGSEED

Compound | BRM HiBit Degradation Maximum (%) (HiBit-BRM fusion protein) | Dmax [1]
Nc1nnc(-c2ccccc2O)cc1OCC12CC(C(=O)N3CCC4(CC3)CC(Oc3ccc5c(c3)C(=O)N(C3CCC(=O)NC3=O)C5=O)C4)(C1)C2 (stereo not shown) [Compound 53, 5-((7-(3-(((3-amino-6-(2-hydroxyphenyl)pyridazin-4-yl)oxy)methyl)bicyclo[1.1.1]pentane-1-carbonyl)-7-azaspiro[3.5]nonan-2-yl)oxy)-2-(2,6-dioxopiperidin-3-yl)isoindoline-1,3-dione] | C (“C” indicates maximum degradation < 50%) | < 50%
Nc1nnc(-c2ccccc2O)cc1OCC12CC(C(=O)N3CCN(CCCC#Cc4ccc5c(c4)C(=O)N(C4CCC(=O)NC4=O)C5=O)CC3)(C1)C2 (stereo not shown) [Compound 51, 5-(5-(4-(3-(((3-amino-6-(2-hydroxyphenyl)pyridazin-4-yl)oxy)methyl)bicyclo[1.1.1]pentane-1-carbonyl)piperazin-1-yl)pent-1-yn-1-yl)-2-(2,6-dioxopiperidin-3-yl)isoindoline-1,3-dione] | C (“C” indicates maximum degradation < 50%) | < 50%
Nc1nnc(-c2ccccc2O)cc1OCC12CC(C(=O)NCCCCS(=O)(=O)CCCNc3cccc4c3C(=O)N(C3CCC(=O)NC3=O)C4=O)(C1)C2 (stereo not shown) [Compound 73, 3-(((3-amino-6-(2-hydroxyphenyl)pyridazin-4-yl)oxy)methyl)-N-(4-((3-((2-(2,6-dioxopiperidin-3-yl)-1,3-dioxoisoindolin-4-yl)amino)propyl)sulfonyl)butyl)bicyclo[1.1.1]pentane-1-carboxamide] | C (“C” indicates maximum degradation < 50%) | < 50%
Nc1nnc(-c2ccccc2O)cc1OCCC12CC(NC(=O)CCCCCCCCNc3ccc4c(c3)C(=O)N(C3CCC(=O)NC3=O)C4=O)(C1)C2 (stereo not shown) [Compound 25, N-[3-(2-[[3-amino-6-(2-hydroxyphenyl)pyridazin-4-yl]oxy]ethyl)bicyclo[1.1.1]pentan-1-yl]-9-[[2-(2,6-dioxopiperidin-3-yl)-1,3-dioxoisoindol-5-yl]amino]nonanamide] | C (“C” indicates maximum degradation < 50%) | < 50%
Nc1nnc(-c2ccccc2O)cc1OCC12CC(C(=O)N3CCC(CCCCN4CCN(c5ccc6c(c5)C(=O)N(C5CCC(=O)NC5=O)C6=O)CC4)CC3)(C1)C2 (stereo not shown) [Compound 95, 5-(4-(4-(1-(3-(((3-amino-6-(2-hydroxyphenyl)pyridazin-4-yl)oxy)methyl)bicyclo[1.1.1]pentane-1-carbonyl)piperidin-4-yl)butyl)piperazin-1-yl)-2-(2,6-dioxopiperidin-3-yl)isoindoline-1,3-dione; formic acid] | B (“B” indicates maximum degradation ≥ 50%) | > 50%
Cc1ncsc1-c1ccc(CNC(=O)[C@@H]2C[C@@H](O)CN2C(=O)[C@@H](NC(=O)CCC(=O)NC23CC(CCOc4cc(-c5ccccc5O)nnc4N)(C2)C3)C(C)(C)C)cc1 [Compound 42, N1-(3-(2-((3-amino-6-(2-hydroxyphenyl)pyridazin-4-yl)oxy)ethyl)bicyclo[1.1.1]pentan-1-yl)-N4-((S)-1-((2S,4R)-4-hydroxy-2-((4-(4-methylthiazol-5-yl)benzyl)carbamoyl)pyrrolidin-1-yl)-3,3-dimethyl-1-oxobutan-2-yl)succinamide] | C (“C” indicates maximum degradation < 50%) | < 50%
Cc1ncsc1-c1ccc(CNC(=O)[C@@H]2C[C@@H](O)CN2C(=O)[C@@H](NC(=O)C23CC(COc4cc(-c5ccccc5O)nnc4N)(C2)C3)C(C)(C)C)cc1 [Compound 105, (2S,4R)-1-((S)-2-(3-(((3-amino-6-(2-hydroxyphenyl)pyridazin-4-yl)oxy)methyl)bicyclo[1.1.1]pentane-1-carboxamido)-3,3-dimethylbutanoyl)-4-hydroxy-N-(4-(4-methylthiazol-5-yl)benzyl)pyrrolidine-2-carboxamide] | C (“C” indicates maximum degradation < 50%) | < 50%
Nc1nnc(-c2ccccc2O)cc1OCC12CC(C(=O)N3CC(COc4ccc5c(c4)C(=O)N(C4CCC(=O)NC4=O)C5=O)C3)(C1)C2 (stereo not shown) [Compound 86, 5-((1-(3-(((3-amino-6-(2-hydroxyphenyl)pyridazin-4-yl)oxy)methyl)bicyclo[1.1.1]pentane-1-carbonyl)azetidin-3-yl)methoxy)-2-(2,6-dioxopiperidin-3-yl)isoindoline-1,3-dione] | B (“B” indicates maximum degradation ≥ 50%) | > 50%
Nc1nnc(-c2ccccc2O)cc1OCC12CC(C(=O)NCCCCCCCCNc3ccc4c(c3)C(=O)N(C3CCC(=O)NC3=O)C4=O)(C1)C2 (stereo not shown) [Compound 65, 3-(((3-amino-6-(2-hydroxyphenyl)pyridazin-4-yl)oxy)methyl)-N-(8-((2-(2,6-dioxopiperidin-3-yl)-1,3-dioxoisoindolin-5-yl)amino)octyl)bicyclo[1.1.1]pentane-1-carboxamide] | C (“C” indicates maximum degradation < 50%) | < 50%
Nc1nnc(-c2ccccc2O)cc1OCCC12CC(NC(=O)CCCCCCOc3cccc4c3C(=O)N(C3CCC(=O)NC3=O)C4=O)(C1)C2 (stereo not shown) [Compound 20, N-[3-(2-[[3-amino-6-(2-hydroxyphenyl)pyridazin-4-yl]oxy]ethyl)bicyclo[1.1.1]pentan-1-yl]-7-[[2-(2,6-dioxopiperidin-3-yl)-1,3-dioxoisoindol-4-yl]oxy]heptanamide] | C (“C” indicates maximum degradation < 50%) | < 50%
Nc1nnc(-c2ccccc2O)cc1OCCC12CC(NC(=O)CCCCCCCOc3cccc4c3C(=O)N(C3CCC(=O)NC3=O)C4=O)(C1)C2 (stereo not shown) [Compound 21, N-[3-(2-[[3-amino-6-(2-hydroxyphenyl)pyridazin-4-yl]oxy]ethyl)bicyclo[1.1.1]pentan-1-yl]-8-[[2-(2,6-dioxopiperidin-3-yl)-1,3-dioxoisoindol-4-yl]oxy]octanamide] | C (“C” indicates maximum degradation < 50%) | < 50%
Nc1nnc(-c2ccccc2O)cc1OCC12CC(C(=O)NCCOCc3cccc(COCCOc4cccc5c4C(=O)N(C4CCC(=O)NC4=O)C5=O)c3)(C1)C2 (stereo not shown) [Compound 85, 3-(((3-amino-6-(2-hydroxyphenyl)pyridazin-4-yl)oxy)methyl)-N-(2-((3-((2-((2-(2,6-dioxopiperidin-3-yl)-1,3-dioxoisoindolin-4-yl)oxy)ethoxy)methyl)benzyl)oxy)ethyl)bicyclo[1.1.1]pentane-1-carboxamide] | C (“C” indicates maximum degradation < 50%) | < 50%
Nc1nnc(-c2ccccc2O)cc1OCC12CC(CNC(=O)CCCCOc3cccc4c3C(=O)N(C3CCC(=O)NC3=O)C4=O)(C1)C2 (stereo not shown) [Compound 3, N-[[3-([[3-amino-6-(2-hydroxyphenyl)pyridazin-4-yl]oxy]methyl)bicyclo[1.1.1]pentan-1-yl]methyl]-5-[[2-(2,6-dioxopiperidin-3-yl)-1,3-dioxoisoindol-4-yl]oxy]pentanamide] | C (“C” indicates maximum degradation < 50%) | < 50%
Nc1nnc(-c2ccccc2O)cc1OCCC12CC(NC(=O)CCOCCOCCNc3cccc4c3C(=O)N(C3CCC(=O)NC3=O)C4=O)(C1)C2 (stereo not shown) [Compound 27, N-[3-(2-[[3-amino-6-(2-hydroxyphenyl)pyridazin-4-yl]oxy]ethyl)bicyclo[1.1.1]pentan-1-yl]-3-[2-(2-[[2-(2,6-dioxopiperidin-3-yl)-1,3-dioxoisoindol-4-yl]amino]ethoxy)ethoxy]propanamide] | C (“C” indicates maximum degradation < 50%) | < 50%
Cc1ncsc1-c1ccc(CNC(=O)[C@@H]2C[C@@H](O)CN2C(=O)[C@@H](NC(=O)CCCC(=O)NCC23CC(COc4cc(-c5ccccc5O)nnc4N)(C2)C3)C(C)(C)C)cc1 [Compound 37, N1-((3-(((3-amino-6-(2-hydroxyphenyl)pyridazin-4-yl)oxy)methyl)bicyclo[1.1.1]pentan-1-yl)methyl)-N5-((S)-1-((2S,4R)-4-hydroxy-2-((4-(4-methylthiazol-5-yl)benzyl)carbamoyl)pyrrolidin-1-yl)-3,3-dimethyl-1-oxobutan-2-yl)glutaramide] | C (“C” indicates maximum degradation < 50%) | < 50%
CN(CCNC(=O)C12CC(COc3cc(-c4ccccc4O)nnc3N)(C1)C2)CCNc1cccc2c1C(=O)N(C1CCC(=O)NC1=O)C2=O (stereo not shown) [Compound 77, 3-(((3-amino-6-(2-hydroxyphenyl)pyridazin-4-yl)oxy)methyl)-N-(2-((2-((2-(2,6-dioxopiperidin-3-yl)-1,3-dioxoisoindolin-4-yl)amino)ethyl)(methyl)amino)ethyl)bicyclo[1.1.1]pentane-1-carboxamide] | C (“C” indicates maximum degradation < 50%) | < 50%
Cc1ncsc1-c1ccc(CNC(=O)[C@@H]2C[C@@H](O)CN2C(=O)[C@@H](NC(=O)CCCCCCCCCNC(=O)C23CC(COc4cc(-c5ccccc5O)nnc4N)(C2)C3)C(C)(C)C)cc1 [Compound 72, (2S,4R)-1-((S)-2-(10-(3-(((3-amino-6-(2-hydroxyphenyl)pyridazin-4-yl)oxy)methyl)bicyclo[1.1.1]pentane-1-carboxamido)decanamido)-3,3-dimethylbutanoyl)-4-hydroxy-N-(4-(4-methylthiazol-5-yl)benzyl)pyrrolidine-2-carboxamide] | B (“B” indicates maximum degradation ≥ 50%) | < 50%
